Laboratory results: patent publication US8618074B2, “GPCR enhanced neuroprotection to treat brain injury” (Board of Regents of the University of Texas System, priority 2007, dated 2013)

Legend:
Mouse cortical neurons = test: Neuronal survival in transwell co-culture with astrocytes under t-buOOH oxidative stress (Hoechst/calcein); assay type: cell-based
Procedure: Primary cultures of astrocytes were prepared as previously published (Lin et al., 2005). C57BL/6 male mice were purchased from the National Institute of Aging and maintained in standard accredited housing conditions at the University of Texas Health Science Center Animal Facility. Animal protocols were approved by our Institutional Animal Care Use Committee. Astrocytes were cultured in DMEM F-12 media (Invitrogen, # 11039-021) supplemented with 2 mM glutamine, nonessential amino acids, 10% fetal calf serum, 100 U/ml penicillin/streptomycin (Cambrex BioScience Walkersville, #17-602E) and 1% fungizone (Invitrogen, #15290-018) at 37° C. in an atmosphere containing 5% CO2. The culture medium was changed every 3-5 days. Confluent cells were gently removed by a trypsin EDTA solution and re-plated on 35 mm glass bottom chambers (Bioptechs #04200415C) prior to imaging experiments 3-4 days later. Cells were maintained in plastic culture flasks until the final re-seeding of cells onto a glass bottom chamber and were passed up to 3 times for astrocyte only experiments. For co-culture experiments with neurons, primary astrocytes were plated directly onto corning transwell-clear permeable supports, which physically separates the two cell-types by ˜1 mm (# 07-200-170, Fisher scientific). Astrocytes were cultured in transwells until they were ˜70% confluent. Mouse cortical neurons (Cambrex Bio Science Walkersville Inc., # M-CX-300) were then cultured onto 6 well mat-tek glass bottom plates and maintained in Neurobasal Medium (Invitrogen, # 21103-049), 2 mM L-Glutamine (Cambrex BioScience Walkersville, #17-605E), 100 U/ml penicillin/streptomycin (Cambrex BioScience Walkersville, #17-602E) and B-27 with (Invitrogen, #17504-044) and without antioxidants (Invitrogen, #10889-038), which controls glia contamination to less than 0.5%. The transwell supports with cultured astrocytes were placed in the neuron seeded glass bottom chambers for four days before imaging and both cell types were then maintained in neuronal media. For neuron only experiments, the astrocytes on the transwell supports were removed prior to treatments and imaging.
Sensitivity of neurons to oxidative stress was assessed by treating cultures with 100 μM tert-butyl hydrogen peroxide (t-BuOOH, Sigma, #B-2633) for 3 hours. Neurons were then stained with Hoechst 33342 (10 μg/ml, Molecular Probes, #H-3570) to label all cell nuclei and calcein AM (2 μM, #C3100, Molecular Probes, #C3100). […] Calcein fluorescence is only observed in live cells that have maintained their plasma membrane integrity. Images were acquired on an inverted Nikon TE300 microscope with a Hamamatsu ORCAER camera and Open lab software (Improvision).
To determine whether P2Y-R enhanced mitochondrial metabolism in astrocytes affected neuronal resistance to oxidative stress, we prepared co-cultures of neurons and astrocytes using corning transwell-clear permeable supports, which physically separates the two cell-types by ˜1 mm (# 07-200-170, Fisher scientific). Primary cultures of astrocytes were directly prepared in transwell supports until they were ˜70% confluent. Mouse cortical neurons were then cultured onto glass bottom mattek plates and maintained in B-27/Neurobasal Medium to control glia contamination to less than 0.5% (Invitrogen). After four days, co-cultures were treated with t-buOOH (100 μM) for 4 hours with and without pre-stimulation of ATP (2 μM, 10 minutes). Cells were then stained with the DNA intercalating dye Hoechst 33342 (10 μg/ml, Molecular Probes, #H-3570) and calcein AM (2 μM, Molecular Probes, #C3100). […] We then tested the neuroprotective affects of isoform specific purinergic ligands 2-MeSADP(P2Y1-R) and UTP(P2Y2-R). FIG. 6A depicts histogram plots of the percentage of neurons alive when cocultured with young or old astrocytes. FIG. 6B depicts histogram plots of the percentage of neurons alive pretreated with either 2-MeSADP (2 μM) or UTP (50 μM) for 10 min. […]

astrocytes = test: Intracellular ATP determination (luciferin-luciferase); assay type: cell-based, mouse
Procedure: Intracellular ATP was measured using a luciferin-luciferase kit (Invitrogen, #22066). Plated astrocytes were trypsinized and washed 3× with PBS buffer (GIBCO #14190). An aliquot of cells was set aside to measure the cell density with a hemocytometer. The cells were then suspended in a lysate buffer (4 mM EDTA and 100 mM Tris, pH 7.75) and immediately heated to 100° C. for 5 minutes to minimize enzymatic changes in ATP levels. The supernatant was collected after a 10,000 g centrifugation for 1 minute and used with the luciferin/luciferase kit according to the manufacturer's instructions. Luminescence was measured with a Synergy™ HT Multi-Detection Microplate Reader (BioTek). ATP levels were normalized by cell density.
Our next approach to investigate the role of mitochondrial metabolism was to directly measure ATP levels in cultures astrocytes using a luciferin-luciferase assay (Invitrogen). Astrocytes were cultured as described above, trypsinized and washed with buffer. The cells were then suspended in a lysate buffer and immediately heated to 100° C. (5 min) to minimize enzymatic changes in ATP levels. After centrifugation, the ATP dependent luminescence of supernatant was measured with a microplate reader (Biotek). FIG. 5C depicts histograms of the direct measurement of intracellular ATP levels relative to untreated cells (control), P2Y-R stimulated (MeADP), then the same measurements in the presence of oligomycin (oligo) or ruthenium 360 (Ru360). We estimated that the resting intracellular ATP concentration in cultured astrocytes was 0.31±0.14 μM ATP/10^4 cells (n=3). […] Finally, we tested whether ruthenium 360 (Ru360; Calbiochem), a polycation that inhibits the electrogenic mitochondrial Ca^2+ uniporter, affected mitochondrial ATP production.

CSc1nc(N)c2ncn([C@@H]3O[C@H](COP(=O)(O)OP(=O)(O)O)[C@@H](O)[C@H]3O)c2n1 [2-MeSADP]
% neurons alive (neuronal survival) (Mouse cortical neurons; anti-oxidant-free B-27, 2-MeSADP 2 μM 10 minutes, t-buOOH 100 μM 3 hours): 43±3%
% neurons alive (Mouse cortical neurons; co-cultures, 10 min pre-treatment 2-MeSADP 2 μM or UTP 50 μM, 4.5 hours of t-buOOH): 70±2%
intracellular ATP levels (astrocytes; 2-MeSADP 2 μM for 10 minutes): 0.39±0.16 μM ATP/10^4 cells

Nc1ncnc2c1ncn2[C@@H]1O[C@H](COP(=O)(O)OP(=O)(O)OP(=O)(O)O)[C@@H](O)[C@H]1O [ATP]
neuronal survival (Mouse cortical neurons; co-cultured with old astrocytes, ATP 2 μM 10 minutes pre-stimulation, t-buOOH 100 μM 4 hours): 87±2%
neuronal survival (Mouse cortical neurons; co-cultured with young astrocytes, ATP 2 μM 10 minutes pre-stimulation, t-buOOH 100 μM 4 hours): 87±2%

CC[C@H]1/C=C/C=C/C[C@@H](C)[C@H](O)[C@@](C)(O)C(=O)[C@@H](C)[C@H](O)[C@@H](C)C(=O)[C@@H](C)[C@H](O)[C@@H](C)/C=C/C(=O)O[C@@H]2[C@H](C)[C@H](CC1)O[C@]1(CC[C@H](C)[C@H](C[C@@H](C)O)O1)[C@H]2C [oligomycin]
neuronal survival (Mouse cortical neurons; anti-oxidant-free B-27, oligomycin 0.01 μM 30 minutes + 2-MeSADP, t-buOOH 3 hours): 26±3%
neuronal survival (Mouse cortical neurons; anti-oxidant-free B-27, oligomycin 0.01 μM 30 minutes, t-buOOH 3 hours): 25±3%
effect on P2Y1-R (2-MeSADP) mediated increases in ATP (astrocytes; oligomycin 0.01 μM 30 min pretreatment + 2-MeSADP): completely inhibited
resting levels of ATP, % of control (astrocytes; oligomycin 0.01 μM, 30 min): 82.6%±3.2 % of control
